{"source": "patent US20070243598A1", "about": "“NOVEL PSEUDONOCARDIA SP. RMRC PAH4 AND A PROCESS FOR BIOCONVERTING COMPACTIN INTO PRAVASTATIN USING THE SAME” (CHINESE PETROLEUM CORPORATION, priority 2004, published 2007)", "system": "Pseudonocardia sp. RMRC PAH4", "assay": "Tolerance of Pseudonocardia sp. RMRC PAH4 against compactin sodium", "format": "cell-based", "conditions": "added after 48 hours on shaker in YMG liquid medium, 220 rpm, 28° C.; conversion rate could not exceed 30%", "method": "The strain was inoculated in the culture medium consisting of casein hydrolysate 0.05-0.2%; yeast extract 0.05-0.2%; soluble starch 0.5-2.0%; KH2PO4 0.01-0.08%; MgSO4.7H2O 0.05-0.2%; Pravastatin sodium 0.005-0.01%; and Bacto agar 2.0%, pH 7.0, and incubated under 28° C. for 7-20 days.\nThe above inoculum culture was incubated in compactin sodium-containing YMG liquid medium consisting of yeast extract 0.1-1.0%; malto extract 0.1-1.0%; peptone 0.1-1.0%; glucose 0.5-2.0%; cotton seed extract (Pharmamedia) 0.5-0.5%; KH2PO4 0.1-0.5%; Na2HPO4 0.3-0.7%; MgSO4.7H2O 0.01-0.05%; FeSO4.7H2O 0.001-0.01%; MnSO4.H2O 0.001-0.01%; CaCl2 0.001-0.01%; compactin sodium 0.002-0.01%; pH 6.5, on a shaker, at 220 rpm, under 28° C.\nAfter incubating on shaker as described above for 48 hours, 300-3,000 μg/ml of compactin sodium as added and continued the incubation under same conditions. Utilization rate of compactin sodium and conversion rate of Pravastatin sodium were analyzed by HPLC at an interval of 24 hours."}
{"compound": "CC[C@H](C)C(=O)O[C@H]1CCC=C2C=C[C@H](C)[C@H](CCCC[C@@H](O)CC(=O)O)[C@H]21", "note": "[compactin sodium]", "values": [{"measurement": "amount of compactin sodium added above which growth of the bacteria becomes considerably slow", "result": "more than 2,500 μg/ml"}]}
